{
  "source": "patent US20100310518A1",
  "about": "“Combinations of Flubendiamide and Beneficial Species” (Bayer CropScience AG, priority 2009, published 2010)",
  "key": {"Myzus persicae": {"test_system": "Myzus persicae", "assay": "Myzus persicae test (drench application) on cabbage plants, with predatory bugs added", "type": "in vivo", "conditions": "flubendiamide alone, 1 mg of ai/l soil, cabbage plants (Brassica oleracea)", "description": "The expected action for a given combination of two active compounds can be calculated as follows, using the formula of S. R. Colby, Weeds 15 (1967), 20-22:\n• X is the kill rate, expressed as % of the untreated control, when employing active compound A at an application rate of m g/ha, m mg of ai/plant or in a concentration of m ppm, • Y is the kill rate, expressed as % of the untreated control, when employing the beneficial species at an application rate of n animals or n units, and • E is the kill rate, expressed as % of the untreated control, when employing active compound\nA and beneficial species B at an application rate of m ppm, m mg of ai/plant or g/ha and n animals or units,\nIf the actual insecticidal or acaricidal kill rate exceeds the calculated value, the kill of the combination is superadditive, i.e. a synergistic effect is present. In this case, the actually observed kill rate must exceed the value calculated using the above formula for the expected kill rate (E). […]\nAfter the application, the predatory bugs (Macrolophus caliginosus) are added in a defined amount. After the desired period of time, the kill of the pest in % is determined 100% means that all of the aphids have been destroyed; 0% means that none of the aphids have been destroyed.\nThe kill rates determined are entered into Colby's formula (see above)."}, "Plutella xylostella": {"test_system": "Plutella xylostella", "assay": "Plutella xylostella test (drench application on rock wool)", "type": "in vivo", "conditions": "for Kill in % after 7^d: 1 mg of ai/plant, drench, cabbage plants", "protocol": "To produce a suitable preparation of active compound, 1 part by weight of active compound is mixed with the stated amounts of solvent and emulsifier, and the concentrate is diluted with water to the desired concentration.\nCabbage plants (Brassica oleracea) are watered with an active compound preparation of the desired concentration and infected with larvae of the diamondback moth (Plutella xylostella).\nAfter the desired period of time, the kill of the pest in % is determined 100% means that all caterpillars have been killed; 0% means that none of the caterpillars have been killed."}},
  "data": [
    {"smiles": "Cc1cc(C(F)(C(F)(F)F)C(F)(F)F)ccc1NC(=O)c1cccc(I)c1C(=O)NC(C)(C)CS(C)(=O)=O", "note": "[flubendiamide, 3-iodo-N′-(2-mesyl-1,1-dimethylethyl)-N-{4-[1,2,2,2-tetrafluoro-1-(trifluoromethyl)ethyl]-o-tolyl}phthalamide]", "values": [
      {"measurement": "Kill in % after 4^h", "setting": "Myzus persicae", "value": 45, "unit": "%"},
      {"measurement": "systemic efficacy", "setting": "Plutella xylostella; applied to soil-less substrates", "value": "surprisingly good systemic efficacy"},
      {"measurement": "Kill in % after 7^d", "setting": "Plutella xylostella; on rock wool", "value": 97, "unit": "%"},
      {"measurement": "Kill in % after 7^d", "setting": "Plutella xylostella; on sandy loam (prior art)", "value": 40, "unit": "%"}
    ]}
  ]
}
